Assay results published in paper PMC7721796, “Molecular basis of regio- and stereo-specificity in biosynthesis of bacterial heterodimeric diketopiperazines” (Nature Communications, 2020).
Residue numbers refer to the chain shown, from its start.

Columns and labels:
[1] = biological target: T1, NasbB (Streptomyces sp., UniProt A0A7T3QX21); type: biochemical; conditions: […] substrate, […] P450, spinach Fd/FdR, NADPH recycling, pH […] °C, […] h; product NAS-B
T1 construct: codon-optimised gene in pMS1, Mycobacterium smegmatis mc2 155
T1 sequence (A0A7T3QX21 1-422): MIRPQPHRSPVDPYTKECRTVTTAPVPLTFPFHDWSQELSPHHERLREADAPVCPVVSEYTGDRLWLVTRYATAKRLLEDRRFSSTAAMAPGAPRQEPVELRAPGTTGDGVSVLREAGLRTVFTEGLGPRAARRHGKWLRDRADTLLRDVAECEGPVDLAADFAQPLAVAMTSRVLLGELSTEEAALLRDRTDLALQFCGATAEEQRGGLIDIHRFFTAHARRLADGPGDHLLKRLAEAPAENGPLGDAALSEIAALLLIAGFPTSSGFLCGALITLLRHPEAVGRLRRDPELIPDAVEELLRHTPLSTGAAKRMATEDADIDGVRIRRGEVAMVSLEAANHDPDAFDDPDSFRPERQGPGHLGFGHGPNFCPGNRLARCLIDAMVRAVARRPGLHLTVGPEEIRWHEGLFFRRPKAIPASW

[2] = biological target: T2, NasF5053 (NascF5053) (Streptomyces sp. NRRL F-5053, UniProt A0A8I3B027); test: UV-Vis difference spectra, Soret shift, hyperbolic fit; conditions: read-out: binding constant
T2 construct: codon-optimised gene in pET28a, E. coli BL21(DE3); heme protein
T2 sequence (A0A8I3B027 entry or part of it): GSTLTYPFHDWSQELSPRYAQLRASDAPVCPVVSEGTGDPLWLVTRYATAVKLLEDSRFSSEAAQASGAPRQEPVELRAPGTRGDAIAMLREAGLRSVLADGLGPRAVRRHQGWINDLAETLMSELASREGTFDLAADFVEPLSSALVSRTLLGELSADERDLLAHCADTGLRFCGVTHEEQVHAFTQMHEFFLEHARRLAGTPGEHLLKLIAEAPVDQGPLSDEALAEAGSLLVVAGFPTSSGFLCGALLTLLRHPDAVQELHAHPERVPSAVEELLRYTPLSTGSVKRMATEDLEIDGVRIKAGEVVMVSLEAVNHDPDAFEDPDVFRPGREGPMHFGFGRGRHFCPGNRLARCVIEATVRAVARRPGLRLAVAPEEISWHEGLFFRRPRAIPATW

[3] = biological target: T3, NasF5053 (NascF5053) (Streptomyces sp. NRRL F-5053, UniProt A0A8I3B027, A86G/Q65I); test: as above; conditions: read-out: binding constant
T3 construct: codon-optimised gene in pET28a, E. coli BL21(DE3); heme protein
T3 sequence (A0A8I3B027 1-398 Q65I/A86G): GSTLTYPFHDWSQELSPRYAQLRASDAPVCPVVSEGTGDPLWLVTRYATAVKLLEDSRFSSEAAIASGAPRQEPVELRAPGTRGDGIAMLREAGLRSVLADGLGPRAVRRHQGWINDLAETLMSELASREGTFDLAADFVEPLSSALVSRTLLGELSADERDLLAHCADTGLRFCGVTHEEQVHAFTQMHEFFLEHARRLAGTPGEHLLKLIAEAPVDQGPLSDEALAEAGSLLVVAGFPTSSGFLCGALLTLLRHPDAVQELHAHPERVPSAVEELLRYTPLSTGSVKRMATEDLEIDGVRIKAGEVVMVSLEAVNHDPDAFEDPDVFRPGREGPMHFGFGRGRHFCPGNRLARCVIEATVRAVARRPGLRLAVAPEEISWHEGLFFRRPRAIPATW

[4] = biological target: T4, NasF5053 (NascF5053) (Streptomyces sp. NRRL F-5053, UniProt A0A8I3B027, S284A/V288A); test: as above; conditions: read-out: binding constant
T4 construct: codon-optimised gene in pET28a, E. coli BL21(DE3); heme protein
T4 sequence (A0A8I3B027 1-398 S284A/V288A): T3 sequence (A0A8I3B027 1-398 Q65I/A86G) with I65Q, G86A, S284A, V288A

[5] = biological target: T5, NasS1868 (Streptomyces sp. NRRL S-1868, UniProt A0ACD6BAV5); test: product formation by UHPLC-MS; type: biochemical; conditions: 1 mM substrate, 0.1 µM P450, spinach Fd/FdR, NADPH recycling, pH 7.5, 4 °C, 24 h; product aspergilazine A
T5 construct: codon-optimised gene in pMS1, Mycobacterium smegmatis mc2 155
T5 sequence (A0ACD6BAV5 1-401): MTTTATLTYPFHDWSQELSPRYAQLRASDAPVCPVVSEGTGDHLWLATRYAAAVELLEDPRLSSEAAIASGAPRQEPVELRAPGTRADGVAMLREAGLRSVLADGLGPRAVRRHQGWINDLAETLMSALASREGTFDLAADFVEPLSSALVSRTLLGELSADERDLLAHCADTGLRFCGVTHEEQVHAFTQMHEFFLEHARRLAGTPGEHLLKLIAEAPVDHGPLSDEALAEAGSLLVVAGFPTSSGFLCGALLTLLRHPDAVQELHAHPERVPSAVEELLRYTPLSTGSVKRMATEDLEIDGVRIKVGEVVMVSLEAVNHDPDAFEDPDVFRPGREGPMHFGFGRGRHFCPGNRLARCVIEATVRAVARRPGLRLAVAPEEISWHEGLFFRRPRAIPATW

Question: `O=C1N[C@@H](Cc2c[nH]c3ccccc23)C(=O)N2CCC[C@@H]12` [cWL-PL] was tested. Which “product formation by UHPLC-MS” value [1] did it give?
Answer: NasbB was confirmed to efficiently dimerize the cWL-PL into NAS-B

Question: What about the Kd [2] of the same molecule?
Answer: 11.6 ± 2.1 µM

Question: What about the Kd [3] of the same molecule?
Answer: 25.6 ± 1 µM

Question: And the Kd [4]?
Answer: 4.81 ± 0.26 µM

Question: And the “product formation by UHPLC-MS” value [5]?
Answer: NasS1868 can convert cWL-PL into Asp-A
